The NIST ThermoML archive (doi:10.1021/je5005752)

Test: xn = mol fraction of the nth substance listed
Conditions: 101 kPa, Liquid; for viscosity: Falling or rolling sphere viscometry; for mass density: Vibrating tube method

CCCC(=O)OCC [ethyl butanoate] + CC(C)CCO
Conditions | mass density [kg/m3] | viscosity [mPa·s]
288.15 K, x1 = 0.1001 | 820.68 | 3.238
288.15 K, x1 = 0.2 | 828.59 | 2.255
288.15 K, x1 = 0.3 | 836.24 | 1.754
288.15 K, x1 = 0.4 | 843.64 | 1.414
288.15 K, x1 = 0.5 | 850.77 | 1.184
288.15 K, x1 = 0.6 | 857.71 | 1.031
288.15 K, x1 = 0.7 | 864.47 | 0.9059
288.15 K, x1 = 0.7999 | 871.18 | 0.8213
288.15 K, x1 = 0.8995 | 877.79 | 0.7679
288.15 K, x1 = 1 | 884.16 | 0.7224
293.15 K, x1 = 0.1001 | 816.74 | 2.813
293.15 K, x1 = 0.2 | 824.48 | 2
293.15 K, x1 = 0.3 | 831.95 | 1.575
293.15 K, x1 = 0.4 | 839.17 | 1.285
293.15 K, x1 = 0.5 | 846.15 | 1.086
293.15 K, x1 = 0.6 | 852.95 | 0.953
293.15 K, x1 = 0.7 | 859.56 | 0.8432
293.15 K, x1 = 0.7999 | 866.14 | 0.7689
293.15 K, x1 = 0.8995 | 872.63 | 0.7214
293.15 K, x1 = 1 | 878.9 | 0.6808
298.15 K, x1 = 0.1001 | 812.8 | 2.462
298.15 K, x1 = 0.2 | 820.34 | 1.785
298.15 K, x1 = 0.3 | 827.63 | 1.422
298.15 K, x1 = 0.4 | 834.7 | 1.172
298.15 K, x1 = 0.5 | 841.51 | 0.9993
298.15 K, x1 = 0.6 | 848.16 | 0.8831
298.15 K, x1 = 0.7 | 854.64 | 0.7864
298.15 K, x1 = 0.7999 | 861.09 | 0.7207
298.15 K, x1 = 0.8995 | 867.46 | 0.6784
298.15 K, x1 = 1 | 873.62 | 0.643
303.15 K, x1 = 0.1001 | 808.84 | 2.164
303.15 K, x1 = 0.2 | 816.19 | 1.598
303.15 K, x1 = 0.3 | 823.31 | 1.288
303.15 K, x1 = 0.4 | 830.2 | 1.073
303.15 K, x1 = 0.5 | 836.86 | 0.9221
303.15 K, x1 = 0.6 | 843.37 | 0.8204
303.15 K, x1 = 0.7 | 849.71 | 0.7345
303.15 K, x1 = 0.7999 | 856.02 | 0.6764
303.15 K, x1 = 0.8995 | 862.27 | 0.6389
303.15 K, x1 = 1 | 868.33 | 0.6072
308.15 K, x1 = 0.1001 | 804.86 | 1.914
308.15 K, x1 = 0.2 | 812.02 | 1.439
308.15 K, x1 = 0.3 | 818.96 | 1.172
308.15 K, x1 = 0.4 | 825.69 | 0.9851
308.15 K, x1 = 0.5 | 832.19 | 0.853
308.15 K, x1 = 0.6 | 838.55 | 0.7639
308.15 K, x1 = 0.7 | 844.75 | 0.6872
308.15 K, x1 = 0.7999 | 850.94 | 0.6355
308.15 K, x1 = 0.8995 | 857.07 | 0.6026
308.15 K, x1 = 1 | 863.02 | 0.5736
313.15 K, x1 = 0.1001 | 800.85 | 1.7
313.15 K, x1 = 0.2 | 807.82 | 1.302
313.15 K, x1 = 0.3 | 814.58 | 1.069
313.15 K, x1 = 0.4 | 821.15 | 0.9071
313.15 K, x1 = 0.5 | 827.5 | 0.7907
313.15 K, x1 = 0.6 | 833.71 | 0.7128
313.15 K, x1 = 0.7 | 839.78 | 0.6437
313.15 K, x1 = 0.7999 | 845.83 | 0.5975
313.15 K, x1 = 0.8995 | 851.85 | 0.569
313.15 K, x1 = 1 | 857.7 | 0.5425
318.15 K, x1 = 0.1001 | 796.81 | 1.516
318.15 K, x1 = 0.2 | 803.6 | 1.181
318.15 K, x1 = 0.3 | 810.18 | 0.9787
318.15 K, x1 = 0.4 | 816.58 | 0.8373
318.15 K, x1 = 0.5 | 822.78 | 0.7346
318.15 K, x1 = 0.6 | 828.85 | 0.6658
318.15 K, x1 = 0.7 | 834.78 | 0.6038
318.15 K, x1 = 0.7999 | 840.71 | 0.5626
318.15 K, x1 = 0.8995 | 846.61 | 0.538
318.15 K, x1 = 1 | 852.36 | 0.5132
323.15 K, x1 = 0.1001 | 792.73 | 1.371
323.15 K, x1 = 0.2 | 799.34 | 1.08
323.15 K, x1 = 0.3 | 805.76 | 0.8983
323.15 K, x1 = 0.4 | 811.99 | 0.7743
323.15 K, x1 = 0.5 | 818.03 | 0.6838
323.15 K, x1 = 0.6 | 823.96 | 0.6195
323.15 K, x1 = 0.7 | 829.75 | 0.5672
323.15 K, x1 = 0.7999 | 835.56 | 0.5303
323.15 K, x1 = 0.8995 | 841.34 | 0.5071
323.15 K, x1 = 1 | 847 | 0.487
